Data on 14 compounds can be found in patent publication US20230143612A1 (Arbutus Biopharma Corporation, priority 2020, published 2023).

SMILES strings stand for the structures.

Sequence of PD-L1 His protein / PD-1 Fc protein (Q9NZQ7 19-238 limits assumed): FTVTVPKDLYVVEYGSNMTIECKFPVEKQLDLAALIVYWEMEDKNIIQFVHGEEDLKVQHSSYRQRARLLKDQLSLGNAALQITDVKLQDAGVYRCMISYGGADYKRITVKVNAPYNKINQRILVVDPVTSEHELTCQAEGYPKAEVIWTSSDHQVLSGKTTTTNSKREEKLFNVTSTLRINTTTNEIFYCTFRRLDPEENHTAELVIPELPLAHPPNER

The assay has as its target PD-L1 His protein / PD-1 Fc protein (Homo sapiens, UniProt Q9NZQ7). Kind of assay: HTRF Assay (PD-1/PD-L1 interaction). It is filed as binding. The note with it: PD-L1 His 6 nM, PD-1 Fc 6 nM. As for the experimental part: PD-L1 His protein was prepared and added at the final concentration of 6 nM in the White opaque 384 well plate (Corning cat #3824BC). PD-L1 small molecule inhibitors were diluted by 3-fold starting from 20 μM and a final concentration of 0.001 μM and added to the well. PD-1 Fc protein was added at the final concentration of 6 nM. PD-L1 His protein, PD-L1 small molecule inhibitors, and PD1 Fc proteins were added to the well in this order, with each 5 μl volume, and were incubated for 15 minutes at room temperature. PAb anti-Human IgG-XL665 (Cisbio, cat #61HFCXLA) and Mab anti-6HIS Tb cryptate Gold (Cisbio, cat #61HI2TLA) were mixed at 6.7 nM and 0.35 nM respectively, and total 5 μl volume of mixture was added to the well and incubated at room temperature for 1 hour. The plate was read using PerkinElmer Envision plate reader and data was analyzed by Prism 6 software.
A general note: In TR-FRET formats the signal depends on donor and acceptor labels being close together.
The compound `Cc1c(COc2cc(OCc3cncc(C#N)c3)c(CNCCO)cc2Cl)cccc1-c1cccc(-n2cnc3cc(CNCCO)ccc3c2=O)c1` [Example 5, 5-((4-Chloro-2-(((2-hydroxyethyl)amino)methyl)-5-((3′-(7-(((2-hydroxyethyl)amino)methyl)-4-oxoquinazolin-3(4H)-yl)-2-methyl-[1,1′-biphenyl]-3-yl)methoxy)phenoxy)methyl)nicotinonitrile] had an IC50 of 150 nM.
Regarding `Cc1c(COc2cc(OCc3cncc(C#N)c3)c(CNCCO)cc2Cl)cccc1-c1cccc(-n2cnc3cc(CNCCO)ccc3c2=O)c1C` [Example 6, 5-((4-Chloro-2-(((2-hydroxyethyl)amino)methyl)-5-((3′-(7-(((2-hydroxyethyl)amino)methyl)-4-oxoquinazolin-3(4H)-yl)-2,2′-dimethyl-[1,1′-biphenyl]-3-yl)methoxy)phenoxy)methyl)nicotinonitrile], inhibition was half-maximal at 44 nM (IC50).
Compound `Cc1c(COc2cc(OCc3cncc(C#N)c3)c(CN[C@@](C)(CO)C(=O)O)cc2Cl)cccc1-c1cccc(-c2ccn3c(=O)c(CN[C@@](C)(CO)C(=O)O)cnc3c2)c1C` [Example 7, (S)-2-(((8-(3′-((4-((((S)-2-Carboxy-1-hydroxypropan-2-yl)amino)methyl)-2-chloro-5-((5-cyanopyridin-3-yl)methoxy)phenoxy)methyl)-2,2′-dimethyl-[1,1′-biphenyl]-3-yl)-4-oxo-4H-pyrido[1,2-a]pyrimidin-3-yl)methyl)amino)-3-hydroxy-2-methylpropanoic acid] yielded an IC50 of 0.2 nM.
To `Cc1c(COc2cc(OCc3cncc(C#N)c3)c(CNCCO)cc2Cl)cccc1-c1cccc(-c2ccc3c(c2)C(=O)N(C)CC(=O)N3CCNCCO)c1C` [Example 8, 5-((4-Chloro-5-((3′-(1-(2-((2-hydroxyethyl)amino)ethyl)-4-methyl-2,5-dioxo-2,3,4,5-tetrahydro-1H-benzo[e][1,4]diazepin-7-yl)-2,2′-dimethyl-[1,1′-biphenyl]-3-yl)methoxy)-2-(((2-hydroxyethyl)amino)methyl)phenoxy)methyl)nicotinonitrile] belongs 0.8 nM.
To `Cc1c(COc2cc(OCc3cncc(C#N)c3)c(CNCCO)cc2Cl)cccc1-c1cccc(-c2ccn3c(=O)c(CNCCO)ccc3c2)c1C` [Example 9, 5-((4-Chloro-2-(((2-hydroxyethyl)amino)methyl)-5-((3′-(3-(((2-hydroxyethyl)amino)methyl)-4-oxo-4H-quinolizin-8-yl)-2,2′-dimethyl-[1,1′-biphenyl]-3-yl)methoxy)phenoxy)methyl)nicotinonitrile] belongs 1.1 nM.
To `Cc1c(COc2cc(OCc3cncc(C#N)c3)c(CN3CCCC[C@H]3C(=O)O)cc2Cl)cccc1-c1cccc(-c2ccn3c(=O)c(CN4CCCC[C@H]4C(=O)O)cnc3c2)c1C` [Example 11, (S)-1-((8-(3′-((4-(((S)-2-Carboxypiperidin-1-yl)methyl)-2-chloro-5-((5-cyanopyridin-3-yl)methoxy)phenoxy)methyl)-2,2′-dimethyl-[1,1′-biphenyl]-3-yl)-4-oxo-4H-pyrido[1,2-a]pyrimidin-3-yl)methyl)piperidine-2-carboxylic acid] belongs 0.6 nM.
Consider `Cc1c(COc2cc(OCc3cncc(C#N)c3)c(CNC[C@@H]3CCC(=O)N3)cc2Cl)cccc1-c1cccc(-c2ccn3c(=O)c(CNC[C@@H]4CCC(=O)N4)cnc3c2)c1C` [Example 12, 5-((4-Chloro-5-((2,2′-dimethyl-3′-(4-oxo-3-(((((S)-5-oxopyrrolidin-2-yl)methyl)amino)methyl)-4H-pyrido[1,2-a]pyrimidin-8-yl)-[1,1′-biphenyl]-3-yl)methoxy)-2-(((((S)-5-oxopyrrolidin-2-yl)methyl)amino)methyl)phenoxy)methyl)nicotinonitrile], for which the IC50 was found to be 0.3 nM.
To `Cc1c(COc2cc(OCc3cncc(C#N)c3)c(CNC[C@H]3CCC(=O)N3)cc2Cl)cccc1-c1cccc(-c2ccn3c(=O)c(CNC[C@H]4CCC(=O)N4)cnc3c2)c1C` [Example 13, 5-((4-Chloro-5-((2,2′-dimethyl-3′-(4-oxo-3-(((((R)-5-oxopyrrolidin-2-yl)methyl)amino)methyl)-4H-pyrido[1,2-a]pyrimidin-8-yl)-[1,1′-biphenyl]-3-yl)methoxy)-2-(((((R)-5-oxopyrrolidin-2-yl)methyl)amino)methyl)phenoxy)methyl)nicotinonitrile] belongs 0.8 nM; to `Cc1c(-c2ccn3c(=O)c(CNCCO)cnc3c2)cccc1-c1cccc(COc2cc(OCc3cncc(C#N)c3)c(CNCCO)cc2Cl)c1Cl` [Example 14, 5-((4-Chloro-5-((2-chloro-3′-(3-(((2-hydroxyethyl)amino)methyl)-4-oxo-4H-pyrido[1,2-a]pyrimidin-8-yl)-2′-methyl-[1,1′-biphenyl]-3-yl)methoxy)-2-(((2-hydroxyethyl)amino)methyl)phenoxy)methyl)nicotinonitrile], 0.4 nM.
To `Cc1c(-c2ccn3c(=O)c(CNCCO)cnc3c2)cccc1-c1cccc(-c2ccn3c(=O)c(CNCCO)cnc3c2)c1C` [Example 15, 8,8′-(2,2′-Dimethyl-[1,1′-biphenyl]-3,3′-diyl)bis(3-(((2-hydroxyethyl)amino)methyl)-4H-pyrido[1,2-a]pyrimidin-4-one)] belongs 60 nM.
The compound `Cc1c(-c2ccn3c(=O)c(CNCCO)cnc3c2)cccc1-c1cccc(COc2cc(OCc3cncc(C#N)c3)c(CNCCO)cc2Cl)c1C#N` [Example 16, 5-((4-Chloro-5-((2-cyano-3′-(3-(((2-hydroxyethyl)amino)methyl)-4-oxo-4H-pyrido[1,2-a]pyrimidin-8-yl)-2′-methyl-[1,1′-biphenyl]-3-yl)methoxy)-2-(((2-hydroxyethyl)amino)methyl)phenoxy)methyl)nicotinonitrile] displayed an IC50 of 0.7 nM.
As to `Cc1c(COc2cc(OCc3cncc(C#N)c3)c(CNCCO)cc2Cl)cccc1-c1cccc(-c2cnc3cc(CNCCO)ccn3c2=O)c1C` [Example 17, 5-((4-Chloro-2-(((2-hydroxyethyl)amino)methyl)-5-((3′-(8-(((2-hydroxyethyl)amino)methyl)-4-oxo-4H-pyrido[1,2-a]pyrimidin-3-yl)-2,2′-dimethyl-[1,1′-biphenyl]-3-yl)methoxy)phenoxy)methyl)nicotinonitrile], the half-maximal inhibitory concentration (IC50) worked out at 2 nM.
To `Cc1c(COc2cc(OCc3cncc(C#N)c3)c(CNC[C@@H]3CCC(=O)N3)cc2Cl)cccc1-c1cccc(-c2ccc3c(c2)C(=O)N(C)CC(=O)N3CCNC[C@@H]2CCC(=O)N2)c1C` [Example 20, 5-((4-Chloro-5-((2,2′-dimethyl-3′-(4-methyl-2,5-dioxo-1-(2-((((S)-5-oxopyrrolidin-2-yl)methyl)amino)ethyl)-2,3,4,5-tetrahydro-1H-benzo[e][1,4]diazepin-7-yl)-[1,1′-biphenyl]-3-yl)methoxy)-2-(((((S)-5-oxopyrrolidin-2-yl)methyl)amino)methyl)phenoxy)methyl)nicotinonitrile] belongs 4.2 nM.
Compound `Cc1c(/C=C(\F)c2ccc(CNCCO)cn2)cccc1-c1cccc(-c2ccn3c(=O)c(CNCCO)cnc3c2)c1C` [Example 21, (Z)-8-(3′-(2-Fluoro-2-(5-(((2-hydroxyethyl)amino)methyl)pyridin-2-yl)vinyl)-2,2′-dimethyl-[1,1′-biphenyl]-3-yl)-3-(((2-hydroxyethyl)amino)methyl)-4H-pyrido[1,2-a]pyrimidin-4-one] returned a half-maximal inhibitory concentration (IC50) of 4.8 nM.

A word on the IC50: it is the point on the concentration scale where inhibition reaches its midpoint. Low values mean greater potency, high ones weaker potency.
